# Measurements: US10800792B2, “Inhibitors of Bruton's tyrosine kinase and method of their use” (JANSSEN PHARMACEUTICA NV, priority 2015, dated 2020)
# Biological target: unphosphorylated-BTK kinase domain (UP-BTK), GST-tagged human BTK (389-659aa) (Homo sapiens (Human), UniProt Q06187)
# Test: BTK kinase Lanthascreen binding assay
# Details: unphosphorylated-BTK kinase domain, 50 nM Tracer 236, 60 minutes; pIC50 = negative log of the IC50 in molar
# Method in brief: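 Measures how well compounds compete with a fluorescence-labelled tracer for binding to BTK in its unphosphorylated state. IC50 values were fitted and expressed as pIC50 (negative logarithm of the molar IC50).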
# Sequence of unphosphorylated-BTK kinase domain (UP-BTK), GST-tagged human BTK (389-659aa) (Q06187 389-659): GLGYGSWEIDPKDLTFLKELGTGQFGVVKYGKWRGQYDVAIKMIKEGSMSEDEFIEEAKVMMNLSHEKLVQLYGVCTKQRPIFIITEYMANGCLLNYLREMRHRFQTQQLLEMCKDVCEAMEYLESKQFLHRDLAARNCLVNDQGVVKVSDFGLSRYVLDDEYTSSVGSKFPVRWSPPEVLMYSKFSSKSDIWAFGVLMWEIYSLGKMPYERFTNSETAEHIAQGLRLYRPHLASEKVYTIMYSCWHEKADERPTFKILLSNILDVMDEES
row,SMILES,BTK_I_binding pIC50
1,"C=CC(=O)N1CCC[C@@H](NC(=O)c2sc3nccc4c3c2NC(=O)N4c2cccc(Cl)c2)C1 [Example 294, (R)—N-(1-Acryloylpiperidin-3-yl)-5-(3-chlorophenyl)-4-oxo-4,5-dihydro-3H-1-thia-3,5,8-triazaacenaphthylene-2-carboxamide]",6.1
2,"Cc1cc(Oc2ccc(F)cc2)ccc1N1C(=O)Nc2c(C(=O)N[C@@H]3CCCN(C)C3)sc3nccc1c23 [Example 295, (R)-5-(4-(4-Fluorophenoxy)-2-methylphenyl)-N-(1-methylpiperidin-3-yl)-4-oxo-4,5-dihydro-3H-1-thia-3,5,8-triazaacenaphthylene-2-carboxamide]",6.1
3,"Cc1cc(Oc2ccccc2)ccc1N1C(=O)Nc2c(C(=O)NCCN3CCOC[C@H]3C)sc3nccc1c23 [Example 296, (R)-5-(2-Methyl-4-phenoxyphenyl)-N-(2-(3-methylmorpholino)ethyl)-4-oxo-4,5-dihydro-3H-1-thia-3,5,8-triazaacenaphthylene-2-carboxamide]",6.1
4,"Cc1cc(OC2CCCC2)ccc1N1C(=O)Nc2c(C(=O)N[C@@H]3CCCN(C)C3)sc3nccc1c23 [Example 297, (R)-5-(4-(Cyclopentyloxy)-2-methylphenyl)-N-(1-methylpiperidin-3-yl)-4-oxo-4,5-dihydro-3H-1-thia-3,5,8-triazaacenaphthylene-2-carboxamide]",6.1
5,"Cc1cc(Oc2ccccc2)ccc1N1C(=O)Nc2c(C(=O)NCCC3CCCN3C)sc3nccc1c23 (centres unmarked) [Example 298, 5-(2-Methyl-4-phenoxyphenyl)-N-(2-(1-methylpyrrolidin-2-yl)ethyl)-4-oxo-4,5-dihydro-3H-1-thia-3,5,8-triazaacenaphthylene-2-carboxamide]",6.1
6,"C=CC(=O)N1CC[C@@H](NC(=O)c2sc3nccc4c3c2NC(=O)N4c2ccc(OC)cc2C)C1 [Example 299, (R)—N-(1-Acryloylpyrrolidin-3-yl)-5-(4-methoxy-2-methylphenyl)-4-oxo-4,5-dihydro-3H-1-thia-3,5,8-triazaacenaphthylene-2-carboxamide]",6.1
7,"C=CC(=O)N1CC[C@@H](NC(=O)c2sc3nccc4c3c2NC(=O)N4c2ccccc2F)C1 [Example 301, (R)—N-(1-Acryloylpyrrolidin-3-yl)-5-(2-fluorophenyl)-4-oxo-4,5-dihydro-3H-1-thia-3,5,8-triazaacenaphthylene-2-carboxamide]",6.0
8,"Cc1cc(Oc2ccc(F)cc2F)ccc1N1C(=O)Nc2c(C(=O)N[C@@H]3CCCN(C)C3)sc3nccc1c23 [Example 302, (R)-5-(4-(2,4-Difluorophenoxy)-2-methylphenyl)-N-(1-methylpiperidin-3-yl)-4-oxo-4,5-dihydro-3H-1-thia-3,5,8-triazaacenaphthylene-2-carboxamide]",6.0
9,"Cc1cc(Oc2ccccc2)c(F)cc1N1C(=O)Nc2c(C(=O)N[C@@H]3CCCN(C)C3)sc3nccc1c23 [Example 303, (R)-5-(5-Fluoro-2-methyl-4-phenoxyphenyl)-N-(1-methylpiperidin-3-yl)-4-oxo-4,5-dihydro-3H-1-thia-3,5,8-triazaacenaphthylene-2-carboxamide]",6.0
10,"C=CC(=O)N1CC[C@@H](NC(=O)c2sc3nccc4c3c2NC(=O)N4c2ccc(C)cc2C)C1 [Example 304, (R)—N-(1-Acryloylpyrrolidin-3-yl)-5-(2,4-dimethylphenyl)-4-oxo-4,5-dihydro-3H-1-thia-3,5,8-triazaacenaphthylene-2-carboxamide]",6.0
11,"Cc1cc(Oc2ccccc2)c(F)cc1N1C(=O)Nc2c(C(=O)N[C@@H]3CCCOC3)sc3nccc1c23 [Example 305, (R)-5-(5-Fluoro-2-methyl-4-phenoxyphenyl)-4-oxo-N-(tetrahydro-2H-pyran-3-yl)-4,5-dihydro-3H-1-thia-3,5,8-triazaacenaphthylene-2-carboxamide]",6.0
